Experimental data taken from patent US20260258425A1, “MALT1 TUMOR INHIBITOR, PHARMACEUTICAL COMPOSITION CONTAINING THE SAME, AND APPLICATIONS THEREOF” (XZYP (BEIJING) BIOTECH CO., LTD, priority 2023, published 2026).
Entries after “also recorded” stand apart in the source; their conditions may differ.

Columns and labels:
MALT1 = assay: Western blot of MALT1 expression in E0771 cells after ASO transfection with Lipofectamine 3000; format: cell-based, mouse; details: ASO final concentration 50 nM, 5 μL Lipofectamine 3000, 48 hours after transfection
Description: S1. Considering the specificity between the antisense nucleic acid and the target nucleic acid and the hairpin-like structure that may be formed by the base complementarity within the nucleotide sequence of the antisense nucleic acid, the nucleotide sequence of the antisense nucleic acid needs to target the amino acid residues at positions 81 and/or 82 of the death domain (DD) of MALT1; S2. Considering the stability of hybridization and the membrane permeability of the antisense oligonucleotide, select the length of the antisense oligonucleotide, which ranges from 15 to 40 bases; S3. Considering the affinity of the antisense oligonucleotide for the target sequence, since the affinity of GC base pairs is greater than that between AU, increasing the ratio of GC base pairs to AU base pairs in the antisense oligonucleotide can appropriately reduce the length of the antisense oligonucleotide; S4. Set a control, which can be missense or reverse; S5. Use the designed antisense oligonucleotides to inhibit the expression of the same target sequence MALT-1 mRNA, and screen the antisense oligonucleotide with the best inhibitory effect. The specific steps for screening the antisense oligonucleotide with the best inhibitory effect are as follows: • a. […] 2×10^5 E0771 cells into each well of a 12-well plate and incubate overnight; • b. On the day after operation a, transfect the corresponding ASO drug with 5 μL of Lipofectamine™ 3000 until its final concentration is 50 nM; • c. 6 hours after operation b, replace the serum-free medium with medium containing 10% serum; • d. 24 hours after operation c, replace the serum-free medium again; • e. 48 hours after operation d, harvest the obtained protein and perform Western blot experiment. The Western blot results of antisense oligonucleotides targeting E0771 cells after transfection with Lipofectamine™ 3000 are shown in FIG. 5: in this figure, 48 hours after transfection with Lipofectamine™ 3000, 5 μL of Lipofectamine™ 3000 was added to each well of the 12-well plate.

[1] = tested on: breast cancer cells (E0771); assay: Verification of ASO prodrug in breast cancer cells E0771 (FIG. 18); format: cell-based, mouse
E0771 cells [2] = assay: E0771 orthotopic breast cancer model, intratumoral ASO, tumor volume; format: in vivo, mouse; details: ASO 5 nmol intratumoral twice a week, mean, n=12
Description: (§1) Based on the intratumoral experimental data of various mouse breast cancer models and melanoma models (administration started 7 days later, once every 3 days), this example studies the effect comparison between the ASO prodrug (ASO24, whose sequence is shown in SEQ ID No. 2) and PD-1/PD-L1, as well as the effect of their combination.
(§2) 1×10^5 E0771 cells were orthotopically injected into the fat pad of wild-type mice. Starting from day 7, PD-1 antibody (BioXCell #BE0033, clone J43, the same below) monotherapy, ASO monotherapy, or combined PD-1 antibody and ASO therapy was initiated. For anti-PD-1 antibody monotherapy, intraperitoneal injection was performed once a week at a dose of 3 mg/kg starting 7 days after tumor transplantation, and the control group was injected with DPBS. For MALT1 ASO monotherapy, in vivo-jetPEI®, in vivo DNA transfection kit was used according to the instructions. Intratumoral injection was performed twice a week at a dose of 5 nmol starting 7 days after tumor transplantation, and the control group was injected with solvent or nontarget ASO. Combined therapy will receive the two specified monotherapies. Tumor measurement was started after administration, once every three days. n=12. Data are expressed as mean. Statistical analysis was performed using Two way ANOVA. ** represents p <0.01.

B16F10 cells = assay: B16F10 subcutaneous melanoma model, intratumoral ASO, tumor volume; format: in vivo, mouse; details: mean, n=10
Description: as §1, §2
1×10^5 B16F10 cells were subcutaneously injected near the subcutaneous tissue of the groin of wild-type mice. Starting from day 7, PD-1 antibody monotherapy, ASO monotherapy, or combined PD-1 antibody and ASO therapy was initiated. n=10. Data are expressed as mean. Statistical analysis was performed using Two way ANOVA. ** represents p<0.01.

PyMT-A cells = assay: PyMT-A orthotopic breast cancer model, intratumoral ASO, tumor volume; format: in vivo, mouse; details: mean, n=10
Description: as §1, §2
(§3) 1×10^5 PyMT-A cells were orthotopically injected into the fat pad of wild-type mice. Starting from day 7, PD-1 antibody monotherapy, ASO monotherapy, or combined PD-1 antibody and ASO therapy was initiated. n=10. Data are expressed as mean. Statistical analysis was performed using Two way ANOVA. n.s. represents no significant difference. ** represents p <0.01.

4T1 cells [3] = assay: 4T1 orthotopic breast cancer model, intratumoral ASO, tumor volume; format: in vivo, mouse; details: mean, n=10
Description: as §1, §2
as §3, with “2×10^5 4T1” for “1×10^5 PyMT-A”

E0771 cells [4] = assay: E0771 breast cancer model, systemic ASO24 (tail vein LNP-ASO), tumor volume; format: in vivo, mouse
Experimental: as §2
(§4) Study on the Effect Comparison between ASO Prodrug and PD-1/PD-L1 and Their Combined Use Based on Systemic Administration Experimental Data of Various Mouse Breast Cancer Models and Melanoma Models (Administration Started 7 Days Later, Once Every 3 Days).
(§5) The experimental process is similar to the intratumoral administration of ASO24 in E0771 cells, with the difference that ASO24 is administered via systemic delivery by tail vein injection of LNP-ASO in mice.

4T1 cells [5] = assay: 4T1 breast cancer model, systemic ASO24 (tail vein LNP-ASO), tumor volume; format: in vivo, mouse
Experimental: as §4, §5

ABC DLBCL cells = details: background statement; cited from earlier work
[6] = tested on: germinal center B-cell (GCB) type DLBCL cells; details: background statement; cells independent of BCR signaling; cited from earlier work
[7] = Day 7 (start of administration), ASO24 systemic by tail vein LNP-ASO
[8] = Day 9, ASO24 systemic by tail vein LNP-ASO, administration from day 7
[9] = Day 11, ASO24 systemic by tail vein LNP-ASO, administration from day 7
[10] = Day 13, ASO24 systemic by tail vein LNP-ASO, administration from day 7
[11] = Day 15, ASO24 systemic by tail vein LNP-ASO, administration from day 7
[12] = Day 17, ASO24 systemic by tail vein LNP-ASO, administration from day 7
[13] = Day 19, ASO24 systemic by tail vein LNP-ASO, administration from day 7

GAAGTTCATGAGCCTTGGCCC (antisense GAAGUUCAUGAGCCUUGGCCC; called an ASO prodrug, chemistry not given here) [ASO24]
inhibition of MALT1 expression (Western blot band) (MALT1; listed as D): obvious inhibitory results; also recorded: obvious inhibitory effects
inhibition of further development of cancer cells [1]: significantly inhibit the further development of cancer cells
Tumor volume (E0771 cells [2]; Day 0, E0771 orthotopic fat pad, wild-type mice, from day 7 anti-PD-1 3 mg/kg i.p. once a week): 0 mm^3
Tumor volume (E0771 cells [2]; Day 7 (start of treatment), E0771 orthotopic, anti-PD-1 3 mg/kg i.p. once a week): 49 mm^3
Tumor volume (E0771 cells [2]; Day 10, E0771 orthotopic, from day 7 anti-PD-1 3 mg/kg i.p. once a week): 36 mm^3
Tumor volume (E0771 cells [2]; Day 13, E0771 orthotopic, from day 7 anti-PD-1 3 mg/kg i.p. once a week): 92 mm^3
Tumor volume (E0771 cells [2]; Day 16, E0771 orthotopic, from day 7 anti-PD-1 3 mg/kg i.p. once a week): 140 mm^3
Tumor volume (E0771 cells [2]; Day 19, E0771 orthotopic, from day 7 anti-PD-1 3 mg/kg i.p. once a week): 306 mm^3
Tumor volume (B16F10 cells; Day 0, B16F10 subcutaneous near groin, wild-type mice, treatment from day 7, ASO intratumoral): 0 mm^3
Tumor volume (B16F10 cells; Day 7 (start of treatment), B16F10 subcutaneous, ASO intratumoral): 49 mm^3
Tumor volume (B16F10 cells; Day 10, B16F10 subcutaneous, treatment from day 7, ASO intratumoral): 26 mm^3
Tumor volume (B16F10 cells; Day 13, B16F10 subcutaneous, treatment from day 7, ASO intratumoral): 129 mm^3
Tumor volume (B16F10 cells; Day 16, B16F10 subcutaneous, treatment from day 7, ASO intratumoral): 311 mm^3
Tumor volume (PyMT-A cells; Day 0, PyMT-A orthotopic fat pad, wild-type mice, treatment from day 7, ASO intratumoral): 0 mm^3
Tumor volume (PyMT-A cells; Day 7 (start of treatment), PyMT-A orthotopic, ASO intratumoral): 13 mm^3
Tumor volume (PyMT-A cells; Day 10, PyMT-A orthotopic, treatment from day 7, ASO intratumoral): 41 mm^3
Tumor volume (PyMT-A cells; Day 13, PyMT-A orthotopic, treatment from day 7, ASO intratumoral): 142 mm^3
Tumor volume (PyMT-A cells; Day 16, PyMT-A orthotopic, treatment from day 7, ASO intratumoral): 245 mm^3
Tumor volume (PyMT-A cells; Day 19, PyMT-A orthotopic, treatment from day 7, ASO intratumoral): 578 mm^3
Tumor volume (4T1 cells [3]; Day 0, 4T1 orthotopic fat pad, wild-type mice, treatment from day 7, ASO intratumoral): 0 mm^3
Tumor volume (4T1 cells [3]; Day 7 (start of treatment), 4T1 orthotopic, ASO intratumoral): 66 mm^3
Tumor volume (4T1 cells [3]; Day 10, 4T1 orthotopic, treatment from day 7, ASO intratumoral): 71 mm^3
Tumor volume (4T1 cells [3]; Day 13, 4T1 orthotopic, treatment from day 7, ASO intratumoral): 205 mm^3
Tumor volume (4T1 cells [3]; Day 16, 4T1 orthotopic, treatment from day 7, ASO intratumoral): 377 mm^3
Tumor volume (4T1 cells [3]; Day 19, 4T1 orthotopic, treatment from day 7, ASO intratumoral): 876 mm^3
Tumor volume (E0771 cells [4]; Day 0, ASO24 systemic by tail vein injection of LNP-ASO, administration from day 7): 0 mm^3
Tumor volume (E0771 cells [4]; [7]): 29 mm^3
Tumor volume (E0771 cells [4]; [8]): 51 mm^3
Tumor volume (E0771 cells [4]; [9]): 57 mm^3
Tumor volume (E0771 cells [4]; [10]): 86 mm^3
Tumor volume (E0771 cells [4]; [11]): 195 mm^3
Tumor volume (E0771 cells [4]; [12]): 225 mm^3
Tumor volume (E0771 cells [4]; [13]): 313 mm^3
Tumor volume (4T1 cells [5]; Day 0, ASO24 systemic by tail vein LNP-ASO, administration from day 7): 0 mm^3
Tumor volume (4T1 cells [5]; [7]): 44 mm^3
Tumor volume (4T1 cells [5]; [8]): 94 mm^3
Tumor volume (4T1 cells [5]; [9]): 103 mm^3
Tumor volume (4T1 cells [5]; [10]): 136 mm^3
Tumor volume (4T1 cells [5]; [11]): 244 mm^3
Tumor volume (4T1 cells [5]; [12]): 333 mm^3
Tumor volume (4T1 cells [5]; [13]): 510 mm^3

AAGTTCATGAGCCTTGGCCC (antisense AAGUUCAUGAGCCUUGGCCC; listed as RNA, chemistry not given here) [ASO C]
inhibition of MALT1 expression (Western blot band) (MALT1): good inhibitory results; also recorded: good inhibitory effects

zVRPR-FMK
toxicity in ABC DLBCL cells (ABC DLBCL cells): induces toxicity
sensitivity of GCB type DLBCL cells to the inhibitor [6]: insensitive

TTGTGGACTATACTTGTGTA (antisense UUGUGGACUAUACUUGUGUA; listed as RNA, chemistry not given here) [ASO G]
inhibition of MALT1 expression (Western blot band) (MALT1): good inhibitory results; also recorded: good inhibitory effects

TCATGAGCCTTGGCCCACTG (antisense UCAUGAGCCUUGGCCCACUG; listed as RNA, chemistry not given here) [ASO B]
inhibition of MALT1 expression (Western blot band) (MALT1): obvious inhibitory results; also recorded: obvious inhibitory effects

TAGAGGCAGTGCTTGGGAAG (antisense UAGAGGCAGUGCUUGGGAAG; listed as RNA, chemistry not given here) [ASO H]
inhibition of MALT1 expression (Western blot band) (MALT1): good inhibitory results; also recorded: good inhibitory effects

GTCCAGCCAACACTGCCTTG (antisense GUCCAGCCAACACUGCCUUG; listed as RNA, chemistry not given here) [ASO J]
inhibition of MALT1 expression (Western blot band) (MALT1): good inhibitory results; also recorded: good inhibitory effects

GAGGCAGTGCTTGGGAAGGTC (antisense GAGGCAGUGCUUGGGAAGGUC; listed as RNA, chemistry not given here) [ASO I]
inhibition of MALT1 expression (Western blot band) (MALT1): good inhibitory results; also recorded: good inhibitory effects

CAAGAGCAGATTTATTTTGT (antisense CAAGAGCAGAUUUAUUUUGU; listed as RNA, chemistry not given here) [ASO K]
inhibition of MALT1 expression (Western blot band) (MALT1): good inhibitory results; also recorded: good inhibitory effects

AGCCTTGGCCCACTGTAGATT (antisense AGCCUUGGCCCACUGUAGAUU; listed as RNA, chemistry not given here) [ASO A]
inhibition of MALT1 expression (Western blot band) (MALT1): good inhibitory results; also recorded: good inhibitory effects

GGTTTGTGGACTATACTTGT (antisense GGUUUGUGGACUAUACUUGU; listed as RNA, chemistry not given here) [ASO25]
inhibition of MALT1 expression (Western blot band) (MALT1): obvious inhibitory results; also recorded: obvious inhibitory effects
